Test results: patent US9765039B2, “Biaryl derivatives as bromodomain inhibitors” (Zenith Epigenetics Ltd., priority 2012, dated 2017)

Experiments:
arthritic rats = assay: In vivo efficacy in rat collagen induced arthritis; design: species or system female Lewis strain of rats; conditions: collagen Day 1 and 7, dosed Day 11 to Day 17
Experimental: Rat collagen-induced arthritis is an experimental model of polyarthritis that has been widely used for preclinical testing of numerous anti-arthritic agents. Following administration of collagen, this model establishes a measurable polyarticular inflammation, marked cartilage destruction in association with pannus formation and mild to moderate bone resorption and periosteal bone proliferation. In this model, collagen was administered to female Lewis strain of rats on Day 1 and 7 of study and dosed with compounds from Day 11 to Day 17. Compounds were evaluated to assess the potential to inhibit the inflammation (including paw swelling), cartilage destruction and bone resorption in arthritic rats, using a model in which the treatment is administered after the disease has been established.

hIL-6 mRNA = assay: Inhibition of hIL-6 mRNA transcription in LPS-stimulated U937 macrophages; assay type: cell-based, human; design: key: Active: Compounds with an IC50 value less than 30 μM are deemed to be active; conditions: U937 differentiated into macrophages, 1 h pretreatment, lipopolysaccharide 3 h
Summary of the method: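 U937 cells differentiated 3 days with 60 ng/mL PMA, pretreated 1 h with compound, then stimulated with […] E. coli LPS for 3 h at 37° C. hIL-6 mRNA quantified by one-step real-time RT-PCR, Ct normalised to internal control and expressed as fold induction relative to control.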

hApoA-1 mRNA = assay: Up-regulation of hApoA-1 mRNA transcription in Huh7 cells; assay type: cell-based, human; design: key: Active: Compounds with an EC170 value less than 30 μM are deemed to be active.; Not Active: Compounds with an EC170 value less than 30 μM are deemed to be active; conditions: 48 hrs treatment, ApoA-I mRNA
Summary of the method: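 Huh7 cells plated 24 h before compound, then treated 48 h; mRNA isolated from lysates and ApoA-I quantified by one-step real-time PCR. Fold induction derived from Ct values relative to the matching DMSO control; EC170 reported as activity measure.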

c-myc = assay: Inhibition of c-myc expression in cancer cell lines (mRNA, real-time PCR); assay type: cell-based; design: key: Active: Compounds with an IC50 value less than 30 μM were deemed to be active; conditions: Human AML MV4-11 cells, 3 hours
Summary of the method: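 MV4-11 cells (2.5×10^4) exposed to compound or 0.1% DMSO for 3 h at 37° C, then lysed for mRNA isolation. c-myc and cyclophilin cDNAs co-amplified by duplex RT real-time PCR. IC50 from dose-response curve.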

Human AML MV-4-11 cells = assay: Inhibition of cell proliferation in cancer cell lines (CellTiter Aqueous One); assay type: cell-based; design: key: Active: Compounds with an IC50 value less than 30 μM were deemed to be active.; Not Active: Compounds with an IC50 value less than 30 μM were deemed to be active; conditions: 72 hours
Summary of the method: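 Exponentially growing MV-4-11 cells were treated immediately with two-fold compound dilutions from 30 µM to 0.2 µM in triplicate for 72 h at 37 °C. Viability was read by MTS (CellTiter Aqueous One) absorbance at 490 nm after 3-4 h; % proliferation vs DMSO gave IC50.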

In the case of `COc1cc(OC)c2c(=O)[nH]c(-c3ccc(OCCNC(C)C)c(-c4ccc([S+](C)[O-])cc4)n3)nc2c1` (stereo not drawn) [Example 41, 2-(5-(2-(Isopropylamino)ethoxy)-6-(4-(methylsulfinyl)phenyl)pyridin-2-yl)-5,7-dimethoxyquinazolin-4(3H)-one], the “In vivo Activity” value (arthritic rats) is reported as “Active”, the “IL-6 activity (IC50 < 30 μM)” value (hIL-6 mRNA) is reported as “Active” and the “ApoA-1 Activity (EC170 < 30 μM)” value (hApoA-1 mRNA) is reported as “Active”. For the same molecule, the “c-myc activity (IC50 < 30 μM)” value (c-myc) was “Active”, the melting point was 93 to 95 °C and the “cell proliferation activity (IC50 < 30 μM)” value (Human AML MV-4-11 cells) was “Active”.
